Reference: US4312883A, “Furocoumarin for the photochemotherapy of psoriasis and related skin diseases” (Consiglio Nazionale delle Ricerche, priority 1979, dated 1982)
Entries after “also recorded” stand apart in the source; their conditions may differ. Where two headings read alike, the source gives them in different places.

How the values were obtained:
E. coli WP2 trp^- uvrA^- = conditions: cited from earlier work
psoriasis = assay: Topical photochemotherapy of psoriasis in patients; assay type: in vivo, human; conditions: topical 0.1% w/v + UV-A
DNA [1] = assay: Capacity to form inter-strand cross-linkages in DNA; assay type: biochemical; conditions: (psr = 100)
Method: All these compounds were not suitable to photoinduce in DNA inter-strand cross-linkages. […] These tests were carried out according to the method of F. Bordin et al., Photochem. Photobiol., 29,1063 (1979).

skin = assay: Relative skin phototoxicity; conditions: (psr = 100)
E. coli wild type strain = conditions: E. coli wild type strains; cited from earlier work
epidermal DNA synthesis [2] = assay: Inhibition of epidermal DNA synthesis in the mouse in vivo after topical application and UV-A irradiation; conditions: light or radiation study, 0.01% methanol solutions, UV-A 9 J/cm^2, read-out: Percent inhibition ± standard error of epidermal DNA synthesis
Method: DNA samples were dissolved in water and their specific radioactivity determined.
Each drug substance was studied using at least six mice.

melamin pigmentation = conditions: Table I; cited from earlier work
[3] = test system: normal human and guinea pig skin; conditions: in vivo; cited from earlier work
[4] = known furocoumarins, Table I; cited from earlier work
[5] = Table I; cited from earlier work
DNA [6] = conditions: cited from earlier work; for Photobinding capacity to DNA: known furocoumarins
DNA [7] = assay: Photobinding to DNA, rate constants of the photoreactions; assay type: biochemical
Excerpt: (b) Determined according to F. Dall'Acqua, S. Marciani, F. Zambon and G.
Rodighiero, Photochem. Photobiol., 29,489(1979).
Photobinding capacity to DNA: The introduction of one or two methyl groups in the molecule of angelicin leads to a strong increase of the photobinding to DNA; see Table II. […] Photobiol., 29, 489 (1979).

epidermal DNA synthesis [8] = assay: Inhibition of the synthesis of epidermal DNA of the mouse in vivo after oral administration and UV-A irradiation; conditions: oral 0.25 g/Kg, UV-A 9 J/cm^2 after two hours
DNA synthesis = conditions: Table I; cited from earlier work
DNA [9] = assay: Dark complex formation (intercalation) with DNA in the ground state, binding parameters; design: K (association constants) of the complexes with DNA: unit not given here
Excerpt: Dark complex formation: It is known from F. Dall'Acqua, et al. Chem.-Biol. Interactions 21,103 (1978) that the intercalated complex formed by furocoumarins with DNA strongly affects the successive photoaddition increasing the rate of photobinding. […] These parameters have been determined according to the method of McChee and Von Hippel, J.Mol.Biol, 86, 469 (1974).
(a) Determined according to Mc Ghee and Von Hippel, J. Mol. Biol.,

In the case of O=c1ccc2ccc3occc3c2o1 [angelicin, reference compound], the “mutagenic activity, strains deficient in known repair functions” value (E. coli WP2 trp^- uvrA^-) is listed as “Only very low mutagenic activity”, the “No. of patients with Excellent result” value (psoriasis; Excellent = 90% clearance) is listed as 0 patients and the “No. of patients with Fair result” value (psoriasis; Fair = 50-70%) is listed as 0 patients. The “No. of patients with Good result” value (psoriasis; Good = 70-90%) was 0 patients, the “No. of patients with Poor result” value (psoriasis; Poor 40%) was 8 patients and the “capacity to form interstrand cross-linkages” value (DNA [1]) was 0. The Relative skin phototoxicity (skin) was 0, the “mutagenic activity / mutation frequency, wild type” value (E. coli wild type strain) was “not detectable” and the inhibition in vivo at 0.01 % (epidermal DNA synthesis [2]) was 17.5 ± 2.5%. The “Stimulation of melamin pigmentation” value (melamin pigmentation) was “absent”, the “erythema or hyperpigmentation on the skin” value [3] was “does not provoke either erythema or hyperpigmentation on the skin” and the Photosensitizing activity [4] was “absent”. The Mutagenicity [5] was “weak”, the DNA intercalation property (DNA [6]; Table I) was “evident” and the “Interstrand cross-linking induction in DNA” value (DNA [6]; Table I) was “absent”. The Monoadduct forming property (DNA [6]; Table I) was “weak”, the “Photobinding capacity to DNA” value (DNA [6]) was “low capacity of photobinding to DNA; also recorded: low photobinding capacity towards DNA” and the “Photobinding capacity to DNA” value (DNA [6]; listed as Angelicin) was “weak”. For the same molecule, the “Rate constants of the photoreactions with DNA” value (DNA [7]; in vitro, UV-A irradiated) was 1.1 K × 10^-2 × min^-1, the “Rate constants of the photoreactions with DNA, relative” value (DNA [7]; relative (ang = 100)) was 100 and the “Percent inhibition ± standard error of epidermal DNA synthesis” value (epidermal DNA synthesis [8]) was 28 ± 2%. For the same molecule, the “DNA synthesis inhibiting property” value (DNA synthesis) was “weak”, the “K (association constants) of the complexes with DNA” value (DNA [9]; in vitro, ground state, McGhee and Von Hippel method) was 560 and the “1/n (frequency of binding sites)” value (DNA [9]; in vitro, ground state, molecules bound per nucleotide) was 0.063. For the same molecule, the “1/n (frequency of binding sites), relative” value (DNA [9]; relative (ang = 100)) was 100 and the “K (association constants), relative” value (DNA [9]; relative (ang = 100)) was 100.
